# Assay results from patent US11464782B2, “Method of treating pain or interstitial cystitis using indole compound” (Japan Tobacco Inc., priority 2018, dated 2022).
# Like-named read-outs stand apart in the source and are kept apart here.
# Experiments:
# CIA model rats = assay: Analgesic effect in rat collagen-induced arthritis (CIA) model, paw withdrawal threshold by Randall-Selitto method; format: in vivo; settings: rats with CIA; 10 or 30 mg/kg oral once per day Days 22-28; measured Day 28
# Procedure: The analgesic effect of Compound A on hypersensitivity to pain during the onset of arthritis in a rat CIA model was evaluated. Hypersensitivity to pain was evaluated using the paw withdrawal threshold (PWT) in relation to mechanical stimulus using the Randall-Selitto method.
# Female LEW/CrlCrlj rats (Charles River Laboratories Japan, Inc.) were used for the experiment. A monohydrochloride of Compound A was dissolved in 0.5% methyl cellulose (MC) to prepare 2 mg/mL and 6 mg/mL solutions of Compound A. Type II collagen derived from joint bovine cartilage (Collagen Research Center) was dissolved in acetic acid to prepare a 2 mg/mL type II collagen solution. Equal volumes of the 2 mg/mL type II collagen solution and incomplete Freund's adjuvant were mixed to prepare a 1 mg/mL type II collagen emulsion.
# On Day 1, the type II collagen emulsion was intradermally injected into the animals in the vehicle group, the Compound A 10 mg/kg administration group, and the Compound A 30 mg/kg administration group. On Day 8, the type II collagen emulsion was intradermally injected into the animals in the vehicle group, the Compound A 10 mg/kg administration group, and the Compound A 30 mg/kg administration group. […] On Day 28, the analgesic effect was measured using a Randall-Selitto analgesy-meter (TK-201, UNICOM). The means values and standard deviations of the PWT values for each group were calculated.
# [1] = tested on: NGF-induced thermal hyperalgesia; assay: NGF-induced thermal hyperalgesia in rats (plantar test, paw withdrawal latency); format: in vivo, rat
# Procedure: In order to induce a pain-related behavior (withdrawal behavior), NGF was injected into the plantar area of the left hind paw of rats and the thermal latencies/mechanical thresholds were measured. The effects of Compound A on these withdrawal behaviors were investigated. At 2 days before the injection of NGF, the thermal latencies or mechanical thresholds were measured for acclimation to the experimental environment. On the day before injection of NGF, body weights and values of the thermal latencies or mechanical thresholds were obtained. 50 μL of NGF solution was injected intraplantar to left hind paw of rats. 0.5 μg/site of NGF was selected in the evaluation of thermal stimuli and 1 μg/site was selected in that of mechanical stimuli. A monohydrochloride of Compound A (1, 3, or 10 mg/kg) was administered orally at the same time as the NGF injection. The latencies to thermal stimuli were measured at 3 and 6 hours after injection of NGF solution, and the thresholds to mechanical stimuli were measured at 1, 3 and 6 hours after injection of NGF solution. The evaluation was performed as a blind test of each group. The thermal latency was measured using a plantar test apparatus. An infrared heat stimuli was delivered to the plantar area of the hind paw and the time to withdraw the paw from the heat source was recorded automatically as the thermal latency. The measurement was performed 5 times for both hind paws of each animal, the averages of the last 3 values in each hind paw were accounted as the thermal latencies of each animal. The measurement for acclimation was performed only 3 times.
# [2] = Trough plasma concentrations of Compound A in the human clinical study; format: in vivo; settings: for concentration at 2 week / concentration at 4 week / concentration at 8 week / concentration at 12 week: human, plasma, oral, human plasma
# Procedure: Compound A was evaluated in a multicenter, randomized, double-blind, placebo-controlled, parallel-group study in subjects with active rheumatoid arthritis. Subjects were randomized to receive orally placebo or an amount of monohydrochloride Compound A sufficient to provide 50 mg, 100 mg, 150 mg, or 200 mg of free form, once daily for 12 weeks.
# In the human clinical study described in Example 3, blood samples were collected from subjects prior to dosing at weeks 2, 4, 8, and 12 for the quantification of plasma Compound A levels.
compound,measurement,setting,value
"C[C@@H](C(=O)N(C)c1ccc2cc(-c3n[nH]c4c3CCC(C)(C)C4)[nH]c2c1)N1CCOCC1 [Compound A, N-[2-(6,6-dimethyl-4,5,6,7-tetrahydro-1H-indazol-3-yl)-1H-indol-6-yl]-N-methyl-(2S)-2-(morpholin-4-yl)propanamide]",hyperalgesia (paw withdrawal threshold to mechanical stimulus),CIA model rats,attenuated hyperalgesia
same,dose from which significant effects were observed (thermal latency),"[1]; at 6 hours after NGF injection, oral",≥ 3 mg/kg
same,effect on the decrease in the thermal latencies induced by NGF,"[1]; compared with the vehicle, 1, 3, 10 mg/kg oral, dose related",prevented the decrease in the thermal latencies induced by NGF
same,"Trough concentration, mean ratio relative to Compound A 50 mg QD at the same visit","[2]; 50 mg QD, 2 week",1.00
same,"Trough concentration, mean ratio relative to Compound A 50 mg QD at the same visit","[2]; 50 mg QD, 4 week",1.00
same,"Trough concentration, mean ratio relative to Compound A 50 mg QD at the same visit","[2]; 50 mg QD, 8 week",1.00
same,"Trough concentration, mean ratio relative to Compound A 50 mg QD at the same visit","[2]; 50 mg QD, 12 week",1.00
same,dose dependence and maintenance of mean trough concentrations,"[2]; 50 mg to 200 mg once daily, weeks 2-12",Mean trough concentrations increased as dose increased from 50 mg to 200 mg and trough concentrations were maintained throughout the study
same,"Trough concentration, mean ratio relative to Compound A 50 mg QD at the same visit","[2]; 100 mg QD, 2 week",1.52
same,"Trough concentration, mean ratio relative to Compound A 50 mg QD at the same visit","[2]; 100 mg QD, 4 week",1.60
same,"Trough concentration, mean ratio relative to Compound A 50 mg QD at the same visit","[2]; 100 mg QD, 8 week",1.77
same,"Trough concentration, mean ratio relative to Compound A 50 mg QD at the same visit","[2]; 100 mg QD, 12 week",1.50
same,"Trough concentration, mean ratio relative to Compound A 50 mg QD at the same visit","[2]; 150 mg QD, 2 week",2.51
same,"Trough concentration, mean ratio relative to Compound A 50 mg QD at the same visit","[2]; 150 mg QD, 4 week",2.28
same,"Trough concentration, mean ratio relative to Compound A 50 mg QD at the same visit","[2]; 150 mg QD, 8 week",2.10
same,"Trough concentration, mean ratio relative to Compound A 50 mg QD at the same visit","[2]; 150 mg QD, 12 week",2.63
same,"Trough concentration, mean ratio relative to Compound A 50 mg QD at the same visit","[2]; 200 mg QD, 2 week",3.89
same,"Trough concentration, mean ratio relative to Compound A 50 mg QD at the same visit","[2]; 200 mg QD, 4 week",3.33
same,"Trough concentration, mean ratio relative to Compound A 50 mg QD at the same visit","[2]; 200 mg QD, 8 week",3.11
same,"Trough concentration, mean ratio relative to Compound A 50 mg QD at the same visit","[2]; 200 mg QD, 12 week",2.98
same,concentration at 2 week,"[2]; 50 mg, 50 mg QD, 2 week, BLQ (<2.00 ng/mL) set to 0, read-out: Trough Plasma Concentrations, Min-Max",0 to 387 ng/mL
same,concentration at 2 week,"[2]; 50 mg, 50 mg QD, 2 week, read-out: Trough Plasma Concentrations, Mean (SD)",134 ng/mL
same,concentration at 2 week,"[2]; 50 mg, 50 mg QD, 2 week, read-out: Trough Plasma Concentrations, Median",118 ng/mL
same,concentration at 4 week,"[2]; 50 mg, 50 mg QD, 4 week, BLQ (<2.00 ng/mL) set to 0, read-out: Trough Plasma Concentrations, Min-Max",0 to 356 ng/mL
same,concentration at 4 week,"[2]; 50 mg, 50 mg QD, 4 week, read-out: Trough Plasma Concentrations, Mean (SD)",135 ng/mL
same,concentration at 4 week,"[2]; 50 mg, 50 mg QD, 4 week, read-out: Trough Plasma Concentrations, Median",119 ng/mL
same,concentration at 8 week,"[2]; 50 mg, 50 mg QD, 8 week, BLQ (<2.00 ng/mL) set to 0, read-out: Trough Plasma Concentrations, Min-Max",0 to 436 ng/mL
same,concentration at 8 week,"[2]; 50 mg, 50 mg QD, 8 week, read-out: Trough Plasma Concentrations, Mean (SD)",129 ng/mL
same,concentration at 8 week,"[2]; 50 mg, 50 mg QD, 8 week, read-out: Trough Plasma Concentrations, Median",108 ng/mL
same,concentration at 12 week,"[2]; 50 mg, 50 mg QD, 12 week, BLQ (<2.00 ng/mL) set to 0, read-out: Trough Plasma Concentrations, Min-Max",0 to 531 ng/mL
same,concentration at 12 week,"[2]; 50 mg, 50 mg QD, 12 week, read-out: Trough Plasma Concentrations, Mean (SD)",119 ng/mL
same,concentration at 12 week,"[2]; 50 mg, 50 mg QD, 12 week, read-out: Trough Plasma Concentrations, Median",100 ng/mL
same,concentration at 2 week,"[2]; 100 mg, 100 mg QD, 2 week, BLQ (<2.00 ng/mL) set to 0, read-out: Trough Plasma Concentrations, Min-Max",0 to 825 ng/mL
same,concentration at 2 week,"[2]; 100 mg, 100 mg QD, 2 week, read-out: Trough Plasma Concentrations, Mean (SD)",204 ng/mL
same,concentration at 2 week,"[2]; 100 mg, 100 mg QD, 2 week, read-out: Trough Plasma Concentrations, Median",191 ng/mL
same,concentration at 4 week,"[2]; 100 mg, 100 mg QD, 4 week, BLQ (<2.00 ng/mL) set to 0, read-out: Trough Plasma Concentrations, Min-Max",0 to 650 ng/mL
same,concentration at 4 week,"[2]; 100 mg, 100 mg QD, 4 week, read-out: Trough Plasma Concentrations, Mean (SD)",216 ng/mL
same,concentration at 4 week,"[2]; 100 mg, 100 mg QD, 4 week, read-out: Trough Plasma Concentrations, Median",215 ng/mL
same,concentration at 8 week,"[2]; 100 mg, 100 mg QD, 8 week, BLQ (<2.00 ng/mL) set to 0, read-out: Trough Plasma Concentrations, Min-Max",0 to 785 ng/mL
same,concentration at 8 week,"[2]; 100 mg, 100 mg QD, 8 week, read-out: Trough Plasma Concentrations, Mean (SD)",228 ng/mL
same,concentration at 8 week,"[2]; 100 mg, 100 mg QD, 8 week, read-out: Trough Plasma Concentrations, Median",194 ng/mL
same,concentration at 12 week,"[2]; 100 mg, 100 mg QD, 12 week, BLQ (<2.00 ng/mL) set to 0, read-out: Trough Plasma Concentrations, Min-Max",0 to 728 ng/mL
same,concentration at 12 week,"[2]; 100 mg, 100 mg QD, 12 week, read-out: Trough Plasma Concentrations, Mean (SD)",178 ng/mL
same,concentration at 12 week,"[2]; 100 mg, 100 mg QD, 12 week, read-out: Trough Plasma Concentrations, Median",175 ng/mL
same,concentration at 2 week,"[2]; 150 mg, 150 mg QD, 2 week, BLQ (<2.00 ng/mL) set to 0, read-out: Trough Plasma Concentrations, Min-Max",1.47 to 1110 ng/mL
same,concentration at 2 week,"[2]; 150 mg, 150 mg QD, 2 week, read-out: Trough Plasma Concentrations, Mean (SD)",335 ng/mL
same,concentration at 2 week,"[2]; 150 mg, 150 mg QD, 2 week, read-out: Trough Plasma Concentrations, Median",300 ng/mL
same,concentration at 4 week,"[2]; 150 mg, 150 mg QD, 4 week, BLQ (<2.00 ng/mL) set to 0, read-out: Trough Plasma Concentrations, Min-Max",0 to 748 ng/mL
same,concentration at 4 week,"[2]; 150 mg, 150 mg QD, 4 week, read-out: Trough Plasma Concentrations, Mean (SD)",309 ng/mL
same,concentration at 4 week,"[2]; 150 mg, 150 mg QD, 4 week, read-out: Trough Plasma Concentrations, Median",277 ng/mL
same,concentration at 8 week,"[2]; 150 mg, 150 mg QD, 8 week, BLQ (<2.00 ng/mL) set to 0, read-out: Trough Plasma Concentrations, Min-Max",0 to 743 ng/mL
same,concentration at 8 week,"[2]; 150 mg, 150 mg QD, 8 week, read-out: Trough Plasma Concentrations, Mean (SD)",272 ng/mL
same,concentration at 8 week,"[2]; 150 mg, 150 mg QD, 8 week, read-out: Trough Plasma Concentrations, Median",277 ng/mL
same,concentration at 12 week,"[2]; 150 mg, 150 mg QD, 12 week, BLQ (<2.00 ng/mL) set to 0, read-out: Trough Plasma Concentrations, Min-Max",0 to 992 ng/mL
same,concentration at 12 week,"[2]; 150 mg, 150 mg QD, 12 week, read-out: Trough Plasma Concentrations, Mean (SD)",312 ng/mL
same,concentration at 12 week,"[2]; 150 mg, 150 mg QD, 12 week, read-out: Trough Plasma Concentrations, Median",246 ng/mL
same,concentration at 2 week,"[2]; 200 mg, 200 mg QD, 2 week, BLQ (<2.00 ng/mL) set to 0, read-out: Trough Plasma Concentrations, Min-Max",5.01 to 2210 ng/mL
same,concentration at 2 week,"[2]; 200 mg, 200 mg QD, 2 week, read-out: Trough Plasma Concentrations, Mean (SD)",521 ng/mL
same,concentration at 2 week,"[2]; 200 mg, 200 mg QD, 2 week, read-out: Trough Plasma Concentrations, Median",436 ng/mL
same,concentration at 4 week,"[2]; 200 mg, 200 mg QD, 4 week, BLQ (<2.00 ng/mL) set to 0, read-out: Trough Plasma Concentrations, Min-Max",0 to 1570 ng/mL
same,concentration at 4 week,"[2]; 200 mg, 200 mg QD, 4 week, read-out: Trough Plasma Concentrations, Mean (SD)",450 ng/mL
same,concentration at 4 week,"[2]; 200 mg, 200 mg QD, 4 week, read-out: Trough Plasma Concentrations, Median",402 ng/mL
same,concentration at 8 week,"[2]; 200 mg, 200 mg QD, 8 week, BLQ (<2.00 ng/mL) set to 0, read-out: Trough Plasma Concentrations, Min-Max",0 to 1660 ng/mL
same,concentration at 8 week,"[2]; 200 mg, 200 mg QD, 8 week, read-out: Trough Plasma Concentrations, Mean (SD)",402 ng/mL
same,concentration at 8 week,"[2]; 200 mg, 200 mg QD, 8 week, read-out: Trough Plasma Concentrations, Median",392 ng/mL
same,concentration at 12 week,"[2]; 200 mg, 200 mg QD, 12 week, BLQ (<2.00 ng/mL) set to 0, read-out: Trough Plasma Concentrations, Min-Max",0 to 1170 ng/mL
same,concentration at 12 week,"[2]; 200 mg, 200 mg QD, 12 week, read-out: Trough Plasma Concentrations, Mean (SD)",354 ng/mL
same,concentration at 12 week,"[2]; 200 mg, 200 mg QD, 12 week, read-out: Trough Plasma Concentrations, Median",323 ng/mL
